Laboratory results reported in ChEMBL document CHEMBL1201862, “PubChem BioAssay data set” (2004).
Calls of active or inactive are those of the source.

Legend:
[1] = viability loss in human Jurkat cells – cell-based, luminescence, cytotoxicity control for P. falciparum gametocyte viability project, dose response (AID 1117277); type: functional;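 also: potency reflects loss of cellular ATP meaning fewer viable cells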
[2] = viability inhibitors of stage V gametocytes – luminescence, dose response (AID 1117278); type: functional, cell-based;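 also: gametocytes exposed to compound for 24 hours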
[3] = target: Mitogen-activated protein kinase 10 (Homo sapiens, UniProt P53779); assay: Dose response biochemical screening assay for inhibitors of c-Jun N-Terminal Kinase 3 (JNK3). [Related pubchem assays: 746 ]
Chain of Mitogen-activated protein kinase 10 (P53779 whole entry): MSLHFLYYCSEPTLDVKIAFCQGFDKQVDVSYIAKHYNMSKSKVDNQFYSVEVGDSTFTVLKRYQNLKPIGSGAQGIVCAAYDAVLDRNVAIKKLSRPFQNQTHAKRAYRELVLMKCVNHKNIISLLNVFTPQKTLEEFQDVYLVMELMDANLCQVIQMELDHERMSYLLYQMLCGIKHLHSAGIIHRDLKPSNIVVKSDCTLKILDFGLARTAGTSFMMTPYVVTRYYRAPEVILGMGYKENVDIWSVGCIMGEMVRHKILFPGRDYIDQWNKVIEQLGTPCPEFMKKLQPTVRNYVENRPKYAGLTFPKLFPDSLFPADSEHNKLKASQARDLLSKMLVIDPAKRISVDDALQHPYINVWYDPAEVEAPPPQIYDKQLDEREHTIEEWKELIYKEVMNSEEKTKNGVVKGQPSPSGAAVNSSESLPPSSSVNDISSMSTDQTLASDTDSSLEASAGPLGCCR

[4] = target: Kallikrein-7 (Homo sapiens, UniProt P49862); assay: Fluorescence Intensity-based biochemical primary high throughput dose response assay to identify activators of kallikrein-7 (K7) zymogen.
Chain of Kallikrein-7 (P49862 whole entry, canonical isoform): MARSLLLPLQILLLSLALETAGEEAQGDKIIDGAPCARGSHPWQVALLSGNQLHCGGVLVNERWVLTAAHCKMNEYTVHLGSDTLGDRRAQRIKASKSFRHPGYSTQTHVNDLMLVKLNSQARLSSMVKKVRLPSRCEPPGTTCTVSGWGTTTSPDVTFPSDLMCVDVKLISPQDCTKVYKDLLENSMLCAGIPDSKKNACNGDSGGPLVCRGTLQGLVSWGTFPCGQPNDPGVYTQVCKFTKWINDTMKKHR

[5] = target: T1, Low molecular weight phosphotyrosine protein phosphatase (Homo sapiens, UniProt P24666); assay: inhibition of human LMPTP enzyme activity – biochemical, absorbance, pNPP substrate, LMPTP-A isoform, set 2, orthogonal assay, dose response (AID 743308); type: functional
T1 sequence (P24666 whole entry): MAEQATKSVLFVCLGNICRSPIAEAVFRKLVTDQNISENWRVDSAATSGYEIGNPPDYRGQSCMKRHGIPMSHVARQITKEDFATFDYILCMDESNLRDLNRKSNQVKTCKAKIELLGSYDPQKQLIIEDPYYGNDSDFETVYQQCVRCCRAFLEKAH

[6] = target: T1, Low molecular weight phosphotyrosine protein phosphatase; assay: inhibition of LMPTP-A enzymatic activity – biochemical, OMFP substrate, fluorescence intensity, set 2, dose response (AID 743307); type: functional
[7] = glucagon-like peptide-1 release potency in STC-1, concentration-response, half-maximal inhibitory concentration in the STC-1 line (AID 1117345); type: functional, cell-based
[8] = cells; type: functional, cell-based; conditions: HEK-CNG
[9] = Potency on glucagon-like peptide 1 release, dose-response in NCI-H716 cell line, half maximal inhibitory concentration (AID 1117344); type: functional, cell-based
[10] = target: T2, Galanin receptor type 3 (Homo sapiens, UniProt O60755); assay: Fluorescence-based cell-based primary high throughput dose response assay to identify antagonists of the Galanin Receptor 3 (GalR3).; type: functional
T2 sequence (O60755 whole entry): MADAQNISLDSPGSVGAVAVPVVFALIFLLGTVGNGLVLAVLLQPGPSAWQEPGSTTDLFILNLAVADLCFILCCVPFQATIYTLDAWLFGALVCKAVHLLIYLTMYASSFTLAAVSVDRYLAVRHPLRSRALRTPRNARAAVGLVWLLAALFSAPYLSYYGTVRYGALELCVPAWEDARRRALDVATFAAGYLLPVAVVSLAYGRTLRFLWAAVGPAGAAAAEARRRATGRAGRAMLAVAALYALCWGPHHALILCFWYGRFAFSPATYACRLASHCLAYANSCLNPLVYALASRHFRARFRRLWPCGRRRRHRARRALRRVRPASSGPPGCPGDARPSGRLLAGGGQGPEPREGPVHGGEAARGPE

[11] = OVCAR8 cell viability loss – plate reader, dry powder samples, PAX8 project, dose response (AID 743197); type: functional, cell-based; conditions: OVCAR-8
[12] = general mammalian cell viability loss – activator set, cherry-pick, cytotoxicity control for miR-122 modulator project, dose response (AID 720690); type: functional, cell-based;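 also: HEK293T human cells scored for general mammalian cytotoxicity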
[13] = general mammalian cell viability loss – inhibitor set, cherry-pick, set 2, cytotoxicity control for miR-122 modulator project, dose response (AID 720697); type: functional, cell-based
[14] = OVCAR-3 cell viability loss – plate reader, dry powder samples, PAX8 inhibitor project, dose response (AID 743044); type: functional, cell-based
[15] = target: Paired box protein Pax-8 (Homo sapiens, UniProt Q06710); assay: PAX8 transcriptional activity inhibition in RMG-I – RMG-I cells, luciferase, cherry-pick, dose response (AID 687027); type: functional, cell-based;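 also: luciferase reporter driven by Pax8 target thyroperoxidase promoter measured by SteadyGlo luminescence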
Chain of Paired box protein Pax-8 (Q06710 whole entry): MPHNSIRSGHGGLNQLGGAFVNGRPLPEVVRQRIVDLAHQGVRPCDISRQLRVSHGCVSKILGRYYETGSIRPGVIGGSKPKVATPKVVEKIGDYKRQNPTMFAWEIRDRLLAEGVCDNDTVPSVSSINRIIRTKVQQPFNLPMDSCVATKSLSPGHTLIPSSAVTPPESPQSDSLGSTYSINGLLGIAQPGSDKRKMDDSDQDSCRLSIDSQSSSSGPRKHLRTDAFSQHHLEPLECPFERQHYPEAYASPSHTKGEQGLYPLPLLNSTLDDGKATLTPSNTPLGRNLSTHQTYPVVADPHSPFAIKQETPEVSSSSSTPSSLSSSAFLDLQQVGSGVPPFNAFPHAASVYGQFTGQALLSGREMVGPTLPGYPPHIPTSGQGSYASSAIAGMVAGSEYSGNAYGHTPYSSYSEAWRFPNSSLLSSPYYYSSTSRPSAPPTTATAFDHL

[16] = target: T3, Corticotropin-releasing factor receptor 2/Corticotropin-releasing factor-binding protein (Homo sapiens, UniProt P24387+Q13324); assay: activators of CRF receptor 2 with binding protein – uHTS hits, confirmation (AID 602473); type: functional; conditions: read-out: EC50_Mean
T3 sequence (Q13324 whole entry): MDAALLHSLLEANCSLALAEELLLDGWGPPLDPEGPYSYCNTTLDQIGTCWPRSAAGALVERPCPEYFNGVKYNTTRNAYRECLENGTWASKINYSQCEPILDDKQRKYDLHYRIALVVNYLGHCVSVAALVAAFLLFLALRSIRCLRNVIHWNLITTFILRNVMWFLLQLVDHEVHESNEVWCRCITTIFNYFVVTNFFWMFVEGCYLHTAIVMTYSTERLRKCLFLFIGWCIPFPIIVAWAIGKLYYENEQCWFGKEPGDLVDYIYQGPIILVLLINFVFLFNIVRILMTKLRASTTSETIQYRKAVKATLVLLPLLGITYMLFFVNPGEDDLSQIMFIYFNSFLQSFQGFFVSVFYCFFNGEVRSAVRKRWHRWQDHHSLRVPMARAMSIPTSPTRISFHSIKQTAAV
T3 sequence (P24387 whole entry): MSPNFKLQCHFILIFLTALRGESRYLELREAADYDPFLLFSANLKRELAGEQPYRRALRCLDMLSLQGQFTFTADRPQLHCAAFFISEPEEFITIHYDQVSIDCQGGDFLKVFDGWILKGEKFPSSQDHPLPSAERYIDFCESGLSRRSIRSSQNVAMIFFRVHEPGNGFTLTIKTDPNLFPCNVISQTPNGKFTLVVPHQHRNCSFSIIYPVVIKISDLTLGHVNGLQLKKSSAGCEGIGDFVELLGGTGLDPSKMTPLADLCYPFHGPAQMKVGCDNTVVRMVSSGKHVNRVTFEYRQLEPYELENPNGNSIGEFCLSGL

[17] = target: 5-hydroxytryptamine receptor 2A (Mus musculus, UniProt P35363); type: functional, cell-based;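 also: CHO-K1 cells with tagged receptor and beta-arrestin; agonist potency measured as compound-induced activation of the receptor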
[18] = target: Mu-type opioid receptor (Homo sapiens, UniProt P35372); type: functional, cell-based;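 also: U2OS cells with beta-arrestin recruitment to OPRM1 by beta-gal complementation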
[19] = target: T3, Corticotropin-releasing factor receptor 2/Corticotropin-releasing factor-binding protein; assay: Dose Response confirmation of uHTS hits for small molecule antagonists of the CRF-binding protein and CRF-R2 receptor complex.; type: functional; conditions: read-out: IC50_Mean
[20] = Counterscreen for activators of the function of SWI/SNF related, matrix associated, actin dependent regulator of chromatin, subfamily a, member 2 (SMARCA2, BRM): Luminescence-based cell-based high throughput dose response assay to identify non-selective compounds using the VP16 reporter assay.; type: functional
[21] = target: SWI/SNF-related matrix-associated actin-dependent regulator of chromatin subfamily A member 2 (Homo sapiens, UniProt P51531); assay: Luminescence-based cell-based high throughput dose response assay to identify activators of the function of SWI/SNF related, matrix associated, actin dependent regulator of chromatin, subfamily a, member 2 (SMARCA2, BRM).; type: functional
Chain of SWI/SNF-related matrix-associated actin-dependent regulator of chromatin subfamily A member 2 (P51531 whole entry, the tested form may be a part): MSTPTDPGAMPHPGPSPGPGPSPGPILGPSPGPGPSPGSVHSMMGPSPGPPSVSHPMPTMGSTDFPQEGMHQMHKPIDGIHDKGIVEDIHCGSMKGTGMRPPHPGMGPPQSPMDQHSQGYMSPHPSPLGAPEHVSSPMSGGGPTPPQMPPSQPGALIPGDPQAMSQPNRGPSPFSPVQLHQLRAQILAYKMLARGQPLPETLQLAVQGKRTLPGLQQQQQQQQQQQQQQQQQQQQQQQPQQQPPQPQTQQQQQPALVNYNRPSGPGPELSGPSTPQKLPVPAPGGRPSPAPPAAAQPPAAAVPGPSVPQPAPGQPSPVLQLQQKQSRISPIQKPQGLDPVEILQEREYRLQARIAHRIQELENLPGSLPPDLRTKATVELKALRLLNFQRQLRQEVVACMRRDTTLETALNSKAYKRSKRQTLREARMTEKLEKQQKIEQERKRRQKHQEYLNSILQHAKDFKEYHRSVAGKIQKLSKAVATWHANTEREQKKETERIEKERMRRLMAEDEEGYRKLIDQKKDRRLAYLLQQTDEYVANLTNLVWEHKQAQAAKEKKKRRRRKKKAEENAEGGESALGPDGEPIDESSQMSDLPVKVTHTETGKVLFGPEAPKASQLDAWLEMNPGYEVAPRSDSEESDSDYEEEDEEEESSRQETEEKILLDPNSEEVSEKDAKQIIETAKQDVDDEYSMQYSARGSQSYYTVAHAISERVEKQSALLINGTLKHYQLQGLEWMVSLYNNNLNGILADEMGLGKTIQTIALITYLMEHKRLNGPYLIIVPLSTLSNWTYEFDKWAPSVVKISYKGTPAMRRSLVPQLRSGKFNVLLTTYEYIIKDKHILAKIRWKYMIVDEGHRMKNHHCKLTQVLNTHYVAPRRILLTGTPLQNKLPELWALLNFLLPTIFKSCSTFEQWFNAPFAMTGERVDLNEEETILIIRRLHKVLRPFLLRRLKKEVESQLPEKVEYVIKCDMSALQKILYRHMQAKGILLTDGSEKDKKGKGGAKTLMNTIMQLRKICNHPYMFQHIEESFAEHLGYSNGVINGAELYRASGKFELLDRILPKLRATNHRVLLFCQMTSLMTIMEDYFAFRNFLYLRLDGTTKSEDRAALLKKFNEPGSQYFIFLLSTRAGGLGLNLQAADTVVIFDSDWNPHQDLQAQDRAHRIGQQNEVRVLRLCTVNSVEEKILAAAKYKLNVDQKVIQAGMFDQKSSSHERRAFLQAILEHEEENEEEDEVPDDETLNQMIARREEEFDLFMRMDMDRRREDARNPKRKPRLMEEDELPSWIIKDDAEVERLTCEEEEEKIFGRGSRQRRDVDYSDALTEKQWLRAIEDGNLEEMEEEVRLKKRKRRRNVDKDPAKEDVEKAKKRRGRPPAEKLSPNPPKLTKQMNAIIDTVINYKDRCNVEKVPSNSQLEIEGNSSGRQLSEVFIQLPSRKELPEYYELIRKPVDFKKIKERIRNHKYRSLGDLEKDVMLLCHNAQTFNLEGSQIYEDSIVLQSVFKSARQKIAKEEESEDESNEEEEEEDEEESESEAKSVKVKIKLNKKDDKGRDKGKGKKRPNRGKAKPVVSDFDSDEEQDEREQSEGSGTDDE

[22] = HIV-1 AD8 envelope cell-cell fusion blockers – cherry-pick, dose response (AID 652062); type: functional, cell-based;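 also: luciferase signal from cell-cell fusion driven by HIV-1 clade B AD8 Env; potency is for inhibitors of fusion seen as a drop in luminescence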
[23] = blockers of HIV-1 ZM109 envelope-driven cell-cell fusion – HeLa effector, CEM target cells, luciferase, cherry-pick, dose response (AID 652058); type: functional, cell-based;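 also: luciferase signal from HIV-1 Env mediated cell-cell fusion of effector and target cells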
[24] = viability loss in CEM21 cells – cell-based, CellTiter-Glo luminescence, cherry-picked, cytotoxicity control for viral fusion inhibitor project, dose response (AID 652042); type: functional;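 also: potency for signal decrease meaning cytotoxicity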
[25] = off-target signal loss in HeLa-CEM21 co-culture – HeLa F-luc CTL cells, cherry-picked, counter-screen for HIV-1 Env fusion inhibitor project, dose response (AID 652040); type: functional, cell-based;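 also: potency for signal decrease marking cytotoxic or nonspecific inhibition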
[26] = blockers of HIV-1 envelope-mediated cell-cell fusion – cherry-pick, dose response (AID 652057); type: functional, cell-based
[27] = NIH3T3 cell viability loss – ATP luminescence, mouse fibroblasts, counter-screen, dose response (AID 2010); type: functional, cell-based;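 also: cells exposed to compound for about 90 hours before reading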
[28] = target: Albumin (Bos taurus, UniProt P02769); assay: Counterscreen for inhibitors of T-cell receptor (TCR)-CD3 interaction: Fluorescence-based biochemical high throughput dose response assay to identify inhibitors of T-cell receptor (TCR)-CD3 interaction using a TAMRA-labeled BSA probe.; type: functional
Chain of Albumin (P02769 whole entry): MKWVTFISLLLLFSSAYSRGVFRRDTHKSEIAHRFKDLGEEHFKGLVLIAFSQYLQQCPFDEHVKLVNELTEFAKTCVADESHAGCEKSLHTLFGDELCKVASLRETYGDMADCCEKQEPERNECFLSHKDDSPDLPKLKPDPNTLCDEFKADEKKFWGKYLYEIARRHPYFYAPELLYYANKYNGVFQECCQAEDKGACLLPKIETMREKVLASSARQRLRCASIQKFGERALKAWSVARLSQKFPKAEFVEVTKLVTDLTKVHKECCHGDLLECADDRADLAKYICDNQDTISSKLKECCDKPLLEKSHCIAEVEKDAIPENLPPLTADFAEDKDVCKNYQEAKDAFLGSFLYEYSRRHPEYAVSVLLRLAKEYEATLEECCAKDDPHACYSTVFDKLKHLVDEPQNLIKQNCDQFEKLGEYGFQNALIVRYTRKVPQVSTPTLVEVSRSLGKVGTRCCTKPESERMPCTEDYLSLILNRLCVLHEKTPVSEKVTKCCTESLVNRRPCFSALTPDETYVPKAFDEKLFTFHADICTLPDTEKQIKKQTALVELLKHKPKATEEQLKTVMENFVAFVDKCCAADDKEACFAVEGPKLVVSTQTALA

[29] = Trypanosoma cruzi growth suppression in host cells – NIH3T3 host cells, beta-gal luminescence, confirmation (AID 2044); type: functional, cell-based;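 also: intracellular parasites grown in NIH/3T3 mouse fibroblasts as host cells; luminescent beta-galactosidase reporter signal from transgenic T. cruzi replicating inside host cells; inhibitors lower the luminescence signal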
[30] = target: T4, Oxysterols receptor LXR-beta (Homo sapiens, UniProt P55055); type: functional, cell-based;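 also: Cell-based luminescence dose-response assay of agonist activity at LXR, run as a confirmatory counterscreen to a daf-12 agonist screen; HEK293 cells with Gal4-LXR fusion and GAL4-driven luciferase reporter; agonist potency from rising luciferase signal of a Gal4-LXR reporter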
T4 sequence (P55055 whole entry): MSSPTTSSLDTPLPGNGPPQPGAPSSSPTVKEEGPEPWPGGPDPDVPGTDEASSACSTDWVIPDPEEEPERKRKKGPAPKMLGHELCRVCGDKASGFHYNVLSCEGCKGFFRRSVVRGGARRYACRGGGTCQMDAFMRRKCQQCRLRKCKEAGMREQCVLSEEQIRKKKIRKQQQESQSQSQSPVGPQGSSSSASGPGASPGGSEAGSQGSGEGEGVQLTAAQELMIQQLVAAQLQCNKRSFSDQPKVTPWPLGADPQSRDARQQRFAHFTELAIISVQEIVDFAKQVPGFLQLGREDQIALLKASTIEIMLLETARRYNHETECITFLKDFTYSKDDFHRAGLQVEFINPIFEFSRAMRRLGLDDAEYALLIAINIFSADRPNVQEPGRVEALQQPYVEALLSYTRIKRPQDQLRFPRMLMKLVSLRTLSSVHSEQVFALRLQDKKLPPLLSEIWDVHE

[31] = cells
[32] = target: Metabotropic glutamate receptor 3 (Rattus norvegicus, UniProt P31422); assay: inhibition of rat mGlu3 glutamate signaling – HEK/GIRK cells, thallium flux, dose response (AID 651839); type: functional
Chain of Metabotropic glutamate receptor 3 (P31422 whole entry): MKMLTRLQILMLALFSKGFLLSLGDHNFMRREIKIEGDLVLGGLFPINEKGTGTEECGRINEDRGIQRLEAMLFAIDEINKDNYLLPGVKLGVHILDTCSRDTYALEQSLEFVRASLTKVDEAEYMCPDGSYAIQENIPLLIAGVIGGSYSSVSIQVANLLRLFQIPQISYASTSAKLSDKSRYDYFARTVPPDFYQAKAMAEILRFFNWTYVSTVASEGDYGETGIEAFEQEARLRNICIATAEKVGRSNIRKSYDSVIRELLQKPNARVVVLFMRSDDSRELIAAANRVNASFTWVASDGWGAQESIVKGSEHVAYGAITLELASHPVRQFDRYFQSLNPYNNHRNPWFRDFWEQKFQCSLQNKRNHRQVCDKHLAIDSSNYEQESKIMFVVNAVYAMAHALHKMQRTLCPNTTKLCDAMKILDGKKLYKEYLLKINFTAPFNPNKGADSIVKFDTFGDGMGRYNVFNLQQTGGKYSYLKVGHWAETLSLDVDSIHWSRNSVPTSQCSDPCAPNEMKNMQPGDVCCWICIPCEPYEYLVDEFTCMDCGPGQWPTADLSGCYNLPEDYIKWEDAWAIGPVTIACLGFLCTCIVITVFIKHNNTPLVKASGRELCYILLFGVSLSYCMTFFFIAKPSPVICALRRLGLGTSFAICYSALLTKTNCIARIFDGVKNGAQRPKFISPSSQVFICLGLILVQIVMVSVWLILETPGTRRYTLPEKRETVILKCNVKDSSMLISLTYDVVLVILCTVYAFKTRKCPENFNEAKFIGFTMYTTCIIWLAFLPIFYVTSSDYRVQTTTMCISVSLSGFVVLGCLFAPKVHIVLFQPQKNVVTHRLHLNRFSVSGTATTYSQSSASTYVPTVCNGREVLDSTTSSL

[33] = target: COUP transcription factor 2 (Homo sapiens, UniProt P24468); assay: Luminescence-based cell-based high throughput dose response assay to identify inhibitors of COUP-TFII (NR2F2).; type: functional;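 also: HEK293 cells transiently cotransfected with COUP-TFII expression vector and reporter; luciferase reporter luminescence driven by COUP-TFII from the pX2-168 reporter plasmid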
Chain of COUP transcription factor 2 (P24468 whole entry): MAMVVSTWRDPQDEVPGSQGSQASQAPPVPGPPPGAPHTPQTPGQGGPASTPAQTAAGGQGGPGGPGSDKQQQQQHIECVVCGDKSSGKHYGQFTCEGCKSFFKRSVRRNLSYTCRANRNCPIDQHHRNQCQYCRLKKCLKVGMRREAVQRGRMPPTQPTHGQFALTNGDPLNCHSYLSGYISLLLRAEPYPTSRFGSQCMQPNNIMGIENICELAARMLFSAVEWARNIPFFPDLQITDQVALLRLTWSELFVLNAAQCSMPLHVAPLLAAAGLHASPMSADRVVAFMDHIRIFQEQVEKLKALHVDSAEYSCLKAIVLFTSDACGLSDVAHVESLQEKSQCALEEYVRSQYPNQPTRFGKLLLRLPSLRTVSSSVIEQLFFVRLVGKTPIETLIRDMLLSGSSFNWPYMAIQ

CCOC(=O)CC1CCCCN1Cc1cn(C)nc1-c1ccc2c(c1)OCCO2 (configuration not stated)
IC50 [1]: > 83.3 µM (inactive) | IC50 [2]: > 109 µM (inactive)

Fc1cc2nccnc2cc1N1CCSCC1
IC50 [3]: 50.2 µM (not active)

O=C(NCCCN1CCOCC1)c1cc2nc(-c3ccco3)cc(C(F)(F)F)n2n1
EC50 [4]: > 69.5 µM (inactive)

Cc1cccc2c(C(=O)O)c3cccc(C)c3nc12
EC50 [4]: > 69.5 µM (inactive)

c1ccc(-c2nc(NCCN3CCCCC3)c3ccccc3n2)cc1
IC50 [5]: > 80 µM (inactive) | IC50 [6]: 64.3 µM (inactive)

CC(=O)OC(C)C[N+](C)(C)C (configuration not stated) [METHACHOLINE CHLORIDE]
IC50 [7]: > 40 µM (inactive) | EC50 [8]: > 30 µM (inactive) | IC50 [9]: > 40 µM (inactive) | IC50 [10]: 7.36 µM (active)

c1ccc(-c2nc(NCCN3CCOCC3)c3ccccc3n2)cc1
IC50 [5]: 53.5 µM (inactive) | IC50 [6]: 25.4 µM (inactive)

C[C@@H]1CN([C@H](C)CO)C(=O)c2cc(NC(=O)Cc3ccccc3)ccc2O[C@@H](C)CCCCO[C@H]1CN(C)Cc1ccc(C(F)(F)F)cc1
AC50 [11]: 63.1 µM (active) | AC50 [12]: 13.8 µM (active) | AC50 [13]: 0.795 µM (active) | AC50 [14]: 3.83 µM (active) | AC50 [15]: 3.98 µM (active)

CC(=O)N1CCC(N2CCCC(C(=O)c3cccc(Cl)c3)C2)CC1 (configuration not stated)
EC50 [16]: > 53 µM (inactive) | EC50 [17]: 0.764 µM (active) | EC50 [18]: 92.5 µM (inactive) | IC50 [19]: > 47.1 µM (inactive)

CCOC(=O)[C@@H](N)CS
IC50 [7]: 14.3 µM (inactive) | IC50 [9]: > 40 µM (inactive)

COc1ccc(OCc2ccc(/C=N\NC(=O)c3sccc3C)o2)cc1
EC50 [20]: > 91.2 µM (inactive) | EC50 [21]: > 91.2 µM (inactive)

CC(C)N(C[C@@H]1N[C@@H](CO)[C@@H]1c1ccccc1)S(=O)(=O)c1ccccc1
AC50 [12]: 32.2 µM (active) | AC50 [13]: 0.473 µM (active)

CCOc1cccc(-c2nnc3sc(C4CCCCC4)nn23)c1
AC50 [22]: 7.17 µM (active) | AC50 [23]: 21.4 µM (active) | AC50 [24]: 49.9 µM (active) | AC50 [25]: 46 µM (active) | AC50 [26]: 5.97 µM (active)

COc1ccc(NS(=O)(=O)c2cc(NC(=O)/C=C/c3cc(OC)c(OC)c(OC)c3)ccc2N2CCCCC2)cc1
EC50 [27]: > 60 µM (not active) | IC50 [28]: > 94.1 µM (inactive) | EC50 [29]: 1.63 µM (active)

CCCc1nc2c(C)cc(Br)cn2c1Cc1ccc(C)cc1
EC50 [30]: > 67.5 µM (inactive) | EC50 [31]: > 67.5 µM (inactive)

Cc1cc(C(=O)Cn2nnc3ccccc3c2=O)c(C)n1Cc1cccs1
EC50 [30]: > 67.6 µM (inactive) | EC50 [31]: > 67.6 µM (inactive)

O=C(c1ccc2cc(-c3ccccc3OCc3ccccc3)ccc2c1)N1CCCC(CO)C1 (configuration not stated)
IC50 [32]: 9.35 µM (active)

COc1ncc(-c2ccc3cc(C(=O)N4CCCC(CO)C4)ccc3c2)cn1 (configuration not stated)
IC50 [32]: 2.17 µM

Cc1cccc(CSc2ccc(-c3cccs3)nn2)c1
EC50 [20]: > 91.1 µM (inactive) | EC50 [21]: > 91.1 µM (inactive)

CCOC(=O)N1CCC(Nc2ncnc3c2cnn3-c2ccc(C)cc2C)CC1
IC50 [33]: 13.6 µM (inactive)

O=C(CSc1nc2ccccc2[nH]1)NCc1ccco1
IC50 [1]: > 83.3 µM (inactive) | IC50 [2]: > 109 µM (inactive)
